Columns and labels:
[1] = test system: Male Long-Evans rats (tail flick, thermal nociception); test: Rat tail flick test, single intravenous injection; format: in vivo; conditions: for tail flick latency (MPE) compared with same dose of WIN alone: i.v. single injection
Procedure: (§1) Male Long-Evans rats (N=175) from Charles River (Montreal, QC, Canada) ranging from 230-380 grams, were housed in polycarbonate cages in pairs and given free access to food (Lab Diet, PMI Nutrition International, Inc., Brentwood, Mo., USA) and water. Animal quarters were kept on a reverse light-dark cycle (lights on from 7 pm to 7 am) and maintained at 22±2° C. and 45±20% relative humidity. Animals were given a minimum of 3 days prior to the experiment to acclimatize to the animal quarters.
(§2) All injections were administered in a volume of 1 ml/kg. All chemicals were dissolved in 5% dimethyl sulfoxide (DMSO; Sigma, Oakville, ON, Canada), 0.3% polyoxyethylenesorbitan monooleate (Tween® 80; Sigma, Oakville, ON, Canada) and 94.7% saline vehicle, and administered intravenously in the posterior ⅓ of the lateral tail vein.
For single injection testing, vehicle alone was used as a control injection (n=8).
(§3) The tail flick apparatus consisted of a projection lamp that creates radiant heat located just below the animal-testing surface (D'Amour, E. E. and Smith, D. L. J. Pharmacol. Exp. Ther. 1941 72:74-79). The light from the lamp projected through a small hole in the testing surface and was aimed at a photocell located 25 cm above the testing surface. A digital timer, connected to the apparatus, started when the heat source was activated. When the animal flicked its tail away from the heat source, the light from the projection lamp activated the photocell, simultaneously stopping the timer and turning off the lamp. The heat intensity was calibrated to result in baseline tail flick latencies of 2-3 seconds and a 10 second cutoff was used to minimize tissue damage.
Nociceptive reflexes to a thermal stimulus were tested using the tail flick analgesia meter. This apparatus focuses a hot beam on the animal's tail. The time it takes for the rat to flick its tail away from the heat source is a measure of pain; the longer the animal leaves its tail on the hotspot, the greater the degree of pain relief. On the day prior to tail flick testing, animals were handled on the tail flick apparatus for 5-10 minutes to reduce stress-induced analgesia (Kelly, S. J. and Franklin, K. B., Neuropharmacology 1985 24:1019-1025; Terman et al., Science 1984 226:1270-1277). For single injection tested groups, animals were restrained in a small towel and a baseline tail flick latency was measured. Following the baseline measure, animals were given a drug injection and tail flick latencies were assessed every 10 minutes for 90 minutes. For the repeated injection groups, animals were given one drug injection every day for seven days. Prior to the first injection, a baseline tail flick latency was measured. Following this measure, animals were given a drug injection and tail flick latencies were assessed 10 minutes post-injection. […] Post injection tail flick latencies were assessed on days 1, 3, 5, and 7. For all animals, tail flick latencies were converted into a percent of maximal possible effect (MPE) using the equation: MPE=[(post-injection latency−baseline latency)/(10 s cutoff−baseline latency)]×100
(§4) Separate two-way repeated measure ANOVAs were performed on the single injection groups, and repeated injection groups (see Example 2). Post-injection time (10-90 minutes for single injection groups) or day of injection (1-7 days for the repeated injection groups) were the within-subjects factors and drug group was the between-subjects factor. Whenever there were violations of sphericity, Huynh-Feldt corrections to the within-group degrees of freedom were reported. Because many drug group comparisons were irrelevant, a priori multiple comparisons were used to analyze the main drug effect using the Dunn's critical t-ratio. A corrected α of 0.005 was used for the single injection groups because there were 8 comparisons, and a corrected α of 0.01 was used for the repeated injection groups because there were 4 comparisons.

[2] = test system: Male Long-Evans rats (tail flick, thermal nociception); test: Rat tail flick test, repeated daily injections for 7 days (tolerance); format: in vivo; conditions: for tail flick latency thresholds compared with WIN alone: i.v. daily for 7 days
Procedure: as §1, §2
For repeated injection testing, vehicle alone was used as a control injection (n=8). […] The control group received 1.1 ng/kg ultra-low dose of SR alone.
as §3
Nociceptive reflexes to a thermal stimulus were tested using the tail flick analgesia meter. This apparatus focuses a hot beam on the animal's tail. The time it takes for the rat to flick its tail away from the heat source is a measure of pain; the longer the animal leaves its tail on the hotspot, the greater the degree of pain relief. On the day prior to tail flick testing, animals were handled on the tail flick apparatus for 5-10 minutes to reduce stress-induced analgesia (Kelly, S. J. and Franklin, K. B., Neuropharmacology 1985 24:1019-1025; Terman et al., Science 1984 226:1270-1277). For single injection tested groups, animals were restrained in a small towel and a baseline tail flick latency was measured. Following the baseline measure, animals were given a drug injection and tail flick latencies were assessed every 10 minutes for 90 minutes. For the repeated injection groups, animals were given one drug injection every day for seven days. Prior to the first injection, a baseline tail flick latency was measured. Following this measure, animals were given a drug injection and tail flick latencies were assessed 10 minutes post-injection. This time point was selected because it is the point at which maximal WIN-induced antinociception is detected in this protocol. Post injection tail flick latencies were assessed on days 1, 3, 5, and 7. For all animals, tail flick latencies were converted into a percent of maximal possible effect (MPE) using the equation: MPE=[(post-injection latency−baseline latency)/(10 s cutoff−baseline latency)]×100
as §4, with “A corrected α of 0.005 was used for the single injection groups because there were 8 comparisons, and a corrected α of 0.01 was used for the repeated injection groups because there were 4 comparisons.” left out

| Compound | tail flick latency (MPE) compared with same dose of WIN alone ([1]; SR 0.055 ng/kg mixed with WIN 0.0625 mg/kg, t(14)=3.28) | tail flick latency (MPE) compared with same dose of WIN alone ([1]; SR 0.083 ng/kg with WIN 0.09375 mg/kg, t(14)=8.16, P≦0.005) | tail flick latency (MPE) compared with same dose of WIN alone ([1]; SR 0.55 ng/kg in combination with WIN 0.0625 mg/kg, t(14)=6.72, P≦0.005) | tail flick latency (MPE) compared with same dose of WIN alone ([1]; SR 0.83 ng/kg with WIN 0.09375 mg/kg, t(14)=9.63, P≦0.005) | antinociceptive properties of WIN in rat tail flick test (FIG. 1A, 1B) ([1]; ultra-low dose SR (0.55, 0.055, 0.83, 0.083 ng/kg) with WIN (0.0625 or 0.09375 mg/kg), single i.v. injection) | tail flick latency thresholds compared with WIN alone ([2]; SR 0.11 ng/kg with WIN 0.125 mg/kg, t(14)=14.35, P≦0.01) | tail flick latency thresholds compared with WIN alone ([2]; SR 1.1 ng/kg with WIN 0.125 mg/kg, t(14)=9.77, P≦0.01) | prevention of WIN-induced tolerance / enhancement of antinociception ([2]; SR to WIN dose ratio 1:100,000) | prevention of WIN-induced tolerance / enhancement of antinociception ([2]; SR to WIN dose ratio 1:1,000,000, slightly (although not significant) better at preventing tolerance) | development of tolerance to the analgesic action of WIN in rat tail flick test (FIG. 2) ([2]; daily ultra-low dose SR (1.1 or 0.11 ng/kg) with WIN 0.125 mg/kg, i.v.) | degree of antinociception in the tail flick test ([1]; rat, in vivo) | tail flick latency (MPE) compared with vehicle ([1]; rat, in vivo) | tail flick latency compared with vehicle ([2]; WIN 0.125 mg/kg i.v. alone, daily for 7 days, tested days 1, 3, 5, 7, t(14)=10.44, P≦0.01) | degree of antinociception in the tail flick test ([2]; WIN alone at 0.125 mg/kg i.v.) | time point post-injection of maximal WIN-induced antinociception ([2]; tail flick, i.v.) [min] |
| --- | --- | --- | --- | --- | --- | --- | --- | --- | --- | --- | --- | --- | --- | --- | --- |
| Cc1c(C(=O)NN2CCCCC2)nn(-c2ccc(Cl)cc2Cl)c1-c1ccc(Cl)cc1 [SR, N-(Piperidin-1-yl)-5-(4-chlorophenyl)-1-(2,4-dichlorophenyl)-4-methyl-1H-pyrazole-3-carboxamide] | no difference | longer tail flick latencies | longer tail flick latencies | longer tail flick latencies | enhanced | greater tail flick latency thresholds | greater tail flick latency thresholds | effective | effective | prevented the development of tolerance |  |  |  |  |  |
| CS(=O)(=O)O.Cc1c(C(=O)c2cccc3ccccc23)c2cccc3c2n1[C@H](CN1CCOCC1)CO3 [WIN, (R)-(+)-[2,3-Dihydro-5-methyl-3-(4-morpholinylmethyl)pyrrolo[1,2,3-de]-1,4-benzoxazin-6-yl]-1-naphthalenylmethanone mesylate] |  |  |  |  |  |  |  |  |  |  | sub-maximal antinociception | no difference | greater tail flick latencies | maximal antinociception | 10 |
